Experimental findings from ChEMBL document CHEMBL1128996, “Synthesis and preliminary pharmacological evaluation of analogues of caracasanamide, a hypotensive natural product” (1996) are described below.

For assay [1], the system named is Rattus norvegicus. In words: Compound was tested for its effect on heart rate in anaesthetized rats after i.v. administration at a dose of 4.12 umol/kg. It counts as functional.
The species entered for assay [2] is Rattus norvegicus. In words: Compound was tested for cardiac ionotropism and expressed as dP/dtmax. It counts as functional. More on the design: concentration or dose not given beside the values.
Assay [3] concerns Rattus norvegicus. In words: Compound was tested for its effect on systolic blood pressure in anaesthetized rats after i.v. administration at a dose of 4.12 umol/kg. It is filed as functional, Artery.
The test system of assay [4] is Rattus norvegicus. Nature of the assay: Compound was tested for its effect on respiratory frequency in anaesthetized rats after i.v. administration at a dose of 4.12 umol/kg. It counts as functional.
Assay [5] deals with Rattus norvegicus. Nature of the assay: Compound was tested for its effect on diastolic blood pressure in anaesthetized rats after i.v. administration at a dose of 4.12 umol/kg. It counts as functional, Artery.
The subject of assay [6] is Rattus norvegicus. In words: Compound was tested for its effect on heart rate in anaesthetized rats after i.v. administration at a dose of 4.12 umol/kg. It counts as functional.

`COc1ccc(C(=O)NCCCC/N=C(\N)NCC=C(C)C)cc1.CS(=O)(=O)O`: the HR in assay [1] was -16 delta beats min-1. In assay [2], the dP/dt max worked out at 3249 mmHg s-1. Further, the Activity in assay [3] is recorded as -26 delta mmHg; in assay [5], -35 delta mmHg. This compound yielded an RF in assay [4] of 17 delta beats min-1.
The like results for `COc1ccc(CCC(=O)NCCCC/N=C(\N)NCC=C(C)C)cc1OC.CS(=O)(=O)O` were, in that order, -12 delta beats min-1, 2252 mmHg s-1, -15 delta mmHg, -14 delta mmHg and 6 delta beats min-1.
The compound `COc1ccc(/C=C/C(=O)NCCCCCC/N=C(\N)NCC=C(C)C)cc1OC.CS(=O)(=O)O` returned a dP/dt max in assay [2] of 648 mmHg s-1. Besides, the Activity is reported as -9 delta mmHg in assay [3] and -8 delta mmHg in assay [5]. Besides, in assay [4], the RF is reported as 4 delta beats min-1. In assay [6], the HR came out at 4 delta beats min-1.
Take `CC(C)=CC/N=C(/N)NCCCCNC(=O)/C=C/c1ccccc1.CS(=O)(=O)O`: the HR in assay [1] is 19 delta beats min-1. For the same compound, the dP/dt max in assay [2] is given as 6070 mmHg s-1. Besides, the Activity in assay [3] is on record as -47 delta mmHg; in assay [5], -59 delta mmHg. Also, the RF in assay [4] turned out to be 12 delta beats min-1.
In turn, `COc1ccc(C#CC(=O)NCCCC/N=C(\N)NCC=C(C)C)cc1OC.CS(=O)(=O)O` displayed an HR in assay [1] of 14 delta beats min-1. The same compound returned a dP/dt max in assay [2] of 3424 mmHg s-1. For the same compound, the Activity in assay [3] was -14 delta mmHg; in assay [5], -24 delta mmHg. In addition, the RF in assay [4] is given as 14 delta beats min-1.
As for `COc1ccc([C@H]2C[C@@H]2C(=O)NCCCC/N=C(\N)NCC=C(C)C)cc1OC.CS(=O)(=O)O`, the HR in assay [1] is reported as -19 delta beats min-1. The dP/dt max in assay [2] was 2781 mmHg s-1. In addition, the Activity in assay [3] was -30 delta mmHg; in assay [5], -26 delta mmHg. In assay [4], this compound showed an RF of 19 delta beats min-1.
In assay [2], `COc1ccc(/C=C/C(=O)NCCCCC/N=C(\N)NCC=C(C)C)cc1OC.CS(=O)(=O)O` yielded a dP/dt max of 5028 mmHg s-1. The Activity in assay [3] is recorded as -34 delta mmHg; in assay [5], -40 delta mmHg. For the same compound, in assay [4], the RF is reported as -10 delta beats min-1. The compound also gave an HR in assay [6] of 8 delta beats min-1.
In turn, `COc1ccc(/C=C/C(=O)NCCCC/N=C(\N)NCC=C(C)C)cc1OC.CS(=O)(=O)O` came in with an HR in assay [1] of 22 delta beats min-1. Also, the dP/dt max in assay [2] came to 2996 mmHg s-1. Further, the Activity in assay [3] is listed as -21 delta mmHg; in assay [5], -18 delta mmHg. Besides, the RF in assay [4] was 23 delta beats min-1.
For `COc1ccc(CC(=O)NCCCC/N=C(\N)NCC=C(C)C)cc1OC.CS(=O)(=O)O`, in that order: -24 delta beats min-1, 3088 mmHg s-1, -22 delta mmHg, -31 delta mmHg and 16 delta beats min-1.
